Assay results reported in patent publication US9603364B2 (Dow AgroSciences LLC, priority 2013, dated 2017).

Experiments:
Assay in all cases: General post-emergent herbicidal activity, foliar application
Type in all cases: in vivo
[1] = system: Zea mays L. (corn); settings: 336 h, scored after 14 days, read-out: % Visual Growth Reduction ZEAMX; for plant injury at 35 g/ha: 35 g ai/ha; for plant injury at 70 g/ha: 70 g ai/ha; for plant injury at 140 g/ha: 140 g ai/ha; for plant injury at 280 g/ha: 280 g ai/ha
Summary of the method: (§1)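 Compounds in acetone/DMSO (97:3) diluted into aqueous spray with isopropanol, Atplus 411F crop oil and Triton X-155; top rate plus 1/2×–1/16× serial rates applied to foliage, solvent blank as control. Greenhouse, sub-irrigated; visual injury versus untreated plants scored 0–100% (100 = complete kill) after 14 days.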

[2] = system: Oryza sativa L. (rice); settings: Oryza sativa, 336 h, scored after 14 days, read-out: % Visual Growth Reduction ORYSA; for plant injury at 35 g/ha: 35 g ai/ha; for plant injury at 70 g/ha: 70 g ai/ha; for plant injury at 140 g/ha: 140 g ai/ha; for plant injury at 280 g/ha: 280 g ai/ha
Summary of the method: as §1

[3] = system: Viola tricolor L. (pansy); settings: for pest or weed control at 35 g/ha / pest or weed control at 70 g/ha / pest or weed control at 140 g/ha / pest or weed control at 280 g/ha: Viola tricolor, 336 h, foliar post-emergent, scored after 14 days, read-out: % Visual Growth Reduction VIOTR; for pest or weed control at 35 g/ha: 35 g ai/ha; for pest or weed control at 70 g/ha: 70 g ai/ha; for pest or weed control at 140 g/ha: 140 g ai/ha; for pest or weed control at 280 g/ha: 280 g ai/ha; for GR80 Value VIOTR: calculated by probit analysis, dose for 80% visual injury, may be extrapolated
Summary of the method: (§2)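 Visual injury ratings on a scale of 0 (none) to 100% (complete kill), taken 14 days after foliar post-emergence treatment of greenhouse plants and compared with untreated plants, were fitted by probit analysis to give GR20, GR50 and GR80 doses; some GR80 values are extrapolated from the slope. Sprays contained crop oil concentrate and surfactant, with rates from the highest down to 1/16×.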

[4] = system: Helianthus annuus L. (sunflower, common); settings: for pest or weed control at 35 g/ha / pest or weed control at 70 g/ha / pest or weed control at 140 g/ha / pest or weed control at 280 g/ha: Helianthus annuus, 336 h, foliar post-emergent, scored after 14 days, read-out: % Visual Growth Reduction HELAN; for pest or weed control at 35 g/ha: 35 g ai/ha; for pest or weed control at 70 g/ha: 70 g ai/ha; for pest or weed control at 140 g/ha: 140 g ai/ha; for pest or weed control at 280 g/ha: 280 g ai/ha; for GR80 Value HELAN: calculated by probit analysis, dose for 80% visual injury, may be extrapolated
Summary of the method: as §2

[5] = system: Echinochloa crus-galli (L.) Beauv. (barnyardgrass); settings: for pest or weed control at 35 g/ha / pest or weed control at 70 g/ha / pest or weed control at 140 g/ha / pest or weed control at 280 g/ha: Echinochloa crus-galli, 336 h, foliar post-emergent, scored after 14 days, read-out: % Visual Growth Reduction ECHCG; for pest or weed control at 35 g/ha: 35 g ai/ha; for pest or weed control at 70 g/ha: 70 g ai/ha; for pest or weed control at 140 g/ha: 140 g ai/ha; for pest or weed control at 280 g/ha: 280 g ai/ha; for GR80 Value ECHCG: calculated by probit analysis, dose for 80% visual injury, may be extrapolated
Summary of the method: as §2

[6] = system: Chenopodium album L. (lambsquarters, common); settings: for pest or weed control at 35 g/ha / pest or weed control at 70 g/ha / pest or weed control at 140 g/ha / pest or weed control at 280 g/ha: Chenopodium album, 336 h, foliar post-emergent, scored after 14 days, read-out: % Visual Growth Reduction CHEAL; for pest or weed control at 35 g/ha: 35 g ai/ha; for pest or weed control at 70 g/ha: 70 g ai/ha; for pest or weed control at 140 g/ha: 140 g ai/ha; for pest or weed control at 280 g/ha: 280 g ai/ha; for GR80 Value CHEAL: calculated by probit analysis, dose for 80% visual injury, may be extrapolated
Summary of the method: as §2

[7] = system: Amaranthus retroflexus L. (pigweed, redroot); settings: for pest or weed control at 35 g/ha / pest or weed control at 70 g/ha / pest or weed control at 140 g/ha / pest or weed control at 280 g/ha: Amaranthus retroflexus, 336 h, foliar post-emergent, scored after 14 days, read-out: % Visual Growth Reduction AMARE; for pest or weed control at 35 g/ha: 35 g ai/ha; for pest or weed control at 70 g/ha: 70 g ai/ha; for pest or weed control at 140 g/ha: 140 g ai/ha; for pest or weed control at 280 g/ha: 280 g ai/ha; for GR80 Value AMARE: calculated by probit analysis, dose for 80% visual injury, may be extrapolated
Summary of the method: as §2

[8] = system: Euphorbia heterophylla L. (poinsettia, wild); settings: for pest or weed control at 35 g/ha / pest or weed control at 70 g/ha / pest or weed control at 140 g/ha / pest or weed control at 280 g/ha: Euphorbia heterophylla, 336 h, foliar post-emergent, scored after 14 days, read-out: % Visual Growth Reduction EPHHL; for pest or weed control at 35 g/ha: 35 g ai/ha; for pest or weed control at 70 g/ha: 70 g ai/ha; for pest or weed control at 140 g/ha: 140 g ai/ha; for pest or weed control at 280 g/ha: 280 g ai/ha; for GR80 Value EPHHL: calculated by probit analysis, dose for 80% visual injury, may be extrapolated
Summary of the method: as §2

| Structure (SMILES) | plant injury at 70 g/ha [1] | plant injury at 140 g/ha [1] | plant injury at 70 g/ha [2] | plant injury at 140 g/ha [2] | pest or weed control at 70 g/ha [3] | pest or weed control at 140 g/ha [3] | GR80 Value VIOTR [3] | pest or weed control at 70 g/ha [4] | pest or weed control at 140 g/ha [4] | GR80 Value HELAN [4] | pest or weed control at 70 g/ha [5] | pest or weed control at 140 g/ha [5] | GR80 Value ECHCG [5] | pest or weed control at 70 g/ha [6] | pest or weed control at 140 g/ha [6] | GR80 Value CHEAL [6] | pest or weed control at 70 g/ha [7] | pest or weed control at 140 g/ha [7] | GR80 Value AMARE [7] | pest or weed control at 140 g/ha [8] | also measured |
| --- | --- | --- | --- | --- | --- | --- | --- | --- | --- | --- | --- | --- | --- | --- | --- | --- | --- | --- | --- | --- | --- |
| COC(=O)c1nc(CF)c(F)c(N)c1Cl [Compound F14, Methyl 4-amino-3-chloro-5-fluoro-6-(fluoromethyl)picolinate] | 0% | 20% | 0% | 0% | 0% | 50% | 334 g ai/ha | 90% | 95% | 18 g ai/ha | 0% | 15% | 411 g ai/ha | 90% | 100% | 16.8 g ai/ha | 80% | 90% | 89.2 g ai/ha | 100% | plant injury at 35 g/ha [1]: 0%; plant injury at 280 g/ha [1]: 45%; plant injury at 35 g/ha [2]: 0%; plant injury at 280 g/ha [2]: 0%; pest or weed control at 35 g/ha [3]: 0%; pest or weed control at 280 g/ha [3]: 60%; pest or weed control at 35 g/ha [4]: 85%; pest or weed control at 280 g/ha [4]: 95%; pest or weed control at 35 g/ha [5]: 0%; pest or weed control at 280 g/ha [5]: 60%; pest or weed control at 35 g/ha [6]: 85%; pest or weed control at 280 g/ha [6]: 100%; pest or weed control at 35 g/ha [7]: 70%; pest or weed control at 280 g/ha [7]: 100%; pest or weed control at 35 g/ha [8]: 10%; pest or weed control at 70 g/ha [8]: 100%; pest or weed control at 280 g/ha [8]: 100%; GR80 Value EPHHL [8]: 53.9 g ai/ha |
| COC(=O)c1nc(C(C)F)c(F)c(N)c1Cl (centres unmarked) [Compound F15, Methyl 4-amino-3-chloro-5-fluoro-6-(1-fluoroethyl)picolinate] | 0% | 0% | 0% | 0% | 45% | 55% | >140 g ai/ha | 90% | 100% | 24.4 g ai/ha | 20% | 30% | >140 g ai/ha | 85% | 80% | 48.6 g ai/ha | 90% | 95% | 22.3 g ai/ha | 90% | plant injury at 35 g/ha [1]: 0%; plant injury at 35 g/ha [2]: 0%; pest or weed control at 35 g/ha [3]: 25%; pest or weed control at 35 g/ha [4]: 80%; pest or weed control at 35 g/ha [5]: 0%; pest or weed control at 35 g/ha [6]: 80%; pest or weed control at 35 g/ha [7]: 90%; pest or weed control at 35 g/ha [8]: 55%; pest or weed control at 70 g/ha [8]: 85%; GR80 Value EPHHL [8]: 75.1 g ai/ha |
| CC(F)c1nc(C(=O)O)c(Cl)c(N)c1Cl (centres unmarked) [Compound F16, 4-Amino-3,5-dichloro-6-(1-fluoroethyl)picolinic acid] | 0% | 0% | 0% | 0% | 0% | 0% | >280 g ai/ha | 80% | 90% | 31.4 g ai/ha | 0% | 0% | >280 g ai/ha | 100% | 100% | <17.5 g ai/ha | 90% | 90% | 51.4 g ai/ha | 0% | plant injury at 280 g/ha [1]: 0%; plant injury at 280 g/ha [2]: 0%; pest or weed control at 280 g/ha [3]: 0%; pest or weed control at 280 g/ha [4]: 100%; pest or weed control at 280 g/ha [5]: 0%; pest or weed control at 280 g/ha [6]: 100%; pest or weed control at 280 g/ha [7]: 100%; pest or weed control at 70 g/ha [8]: 0%; pest or weed control at 280 g/ha [8]: 50%; GR80 Value EPHHL [8]: 373 g ai/ha |
| COC(=O)c1nc(C(F)=C(F)F)cc(N)c1Cl [Compound F17] |  | 0% |  | 0% |  | 0% |  |  | 60% |  |  | 0% |  |  | 0% |  |  | 0% |  | 0% |  |
| COC(=O)c1nc(C(C)F)cc(N)c1Cl (centres unmarked) [Compound F19, Methyl 4-amino-3-chloro-6-(1-fluoroethyl)picolinate] | 0% | 90% | 0% | 0% | 100% | 100% | 34.3 g ai/ha | 20% | 50% | 341 g ai/ha | 0% | 20% | >280 g ai/ha | 100% | 100% | <17.5 g ai/ha | 100% | 100% | 19.1 g ai/ha | 100% | plant injury at 35 g/ha [1]: 0%; plant injury at 280 g/ha [1]: 100%; plant injury at 35 g/ha [2]: 0%; plant injury at 280 g/ha [2]: 0%; pest or weed control at 35 g/ha [3]: 100%; pest or weed control at 280 g/ha [3]: 100%; pest or weed control at 35 g/ha [4]: 10%; pest or weed control at 280 g/ha [4]: 80%; pest or weed control at 35 g/ha [5]: 0%; pest or weed control at 280 g/ha [5]: 25%; pest or weed control at 35 g/ha [6]: 100%; pest or weed control at 280 g/ha [6]: 100%; pest or weed control at 35 g/ha [7]: 100%; pest or weed control at 280 g/ha [7]: 100%; pest or weed control at 35 g/ha [8]: 10%; pest or weed control at 70 g/ha [8]: 90%; pest or weed control at 280 g/ha [8]: 100%; GR80 Value EPHHL [8]: 72.3 g ai/ha |
| COC(=O)c1nc(C(C)CF)cc(N)c1Cl (centres unmarked) [Compound F20, methyl 4-amino-3-chloro-6-(1-fluoropropan-2-yl)picolinate] |  | 0% |  | 0% |  | 30% |  |  | 50% |  |  | 0% |  |  | 80% |  |  | 95% |  | 95% |  |
